Measured values reported in paper PMC7083225 (Cell Chemical Biology, 2020).

B1: VSD2-NavAb chimeric channel (hNav1.7 VSD2 sequences fused to a NavAb scaffold) (other)
chain: MYLRITNIVESSFFTKFIIYLIVLNTLFMAMEHHPMTEEFKNVLAIGNLVFTGIFAIEIILRIYVHRISFFKDPWSLFDSLIVTLSLVELFLADVEGLSVLRSFRLLRVFRLVTAVPQMRKIVSALISVIPGMLSVIALMTLFFYIFAIMATQLFGERFPEWFGTLGESFYTLFQVMTLESWSMGIVRPLMEVYPYAWVFFIPFIFVVTFVMINLVVAICVDAMAILNQKEEQHIIDEVQSHEDNINNEIIKLREEIVELKELIKTSLKN
notes: not shown: FLAG, N-terminal, kept

target: human Nav1.7 (Homo sapiens, UniProt Q15858); experiment: Automated patch-clamp electrophysiology, CHO cells expressing Nav1.7; format: cell-based; details: SyncroPatch 768PE automated patch clamp; CHO stable cell line expressing human Nav1.7; holding -120 mV, 10 ms pulse to -10 mV every 2 s; 25 min compound; four-parameter Hill fit, each point n = 3-20; read-out: IC50 (nM), Nav1.7 inhibition
Sequence (Q15858 1-1977 isoform Q15858-4): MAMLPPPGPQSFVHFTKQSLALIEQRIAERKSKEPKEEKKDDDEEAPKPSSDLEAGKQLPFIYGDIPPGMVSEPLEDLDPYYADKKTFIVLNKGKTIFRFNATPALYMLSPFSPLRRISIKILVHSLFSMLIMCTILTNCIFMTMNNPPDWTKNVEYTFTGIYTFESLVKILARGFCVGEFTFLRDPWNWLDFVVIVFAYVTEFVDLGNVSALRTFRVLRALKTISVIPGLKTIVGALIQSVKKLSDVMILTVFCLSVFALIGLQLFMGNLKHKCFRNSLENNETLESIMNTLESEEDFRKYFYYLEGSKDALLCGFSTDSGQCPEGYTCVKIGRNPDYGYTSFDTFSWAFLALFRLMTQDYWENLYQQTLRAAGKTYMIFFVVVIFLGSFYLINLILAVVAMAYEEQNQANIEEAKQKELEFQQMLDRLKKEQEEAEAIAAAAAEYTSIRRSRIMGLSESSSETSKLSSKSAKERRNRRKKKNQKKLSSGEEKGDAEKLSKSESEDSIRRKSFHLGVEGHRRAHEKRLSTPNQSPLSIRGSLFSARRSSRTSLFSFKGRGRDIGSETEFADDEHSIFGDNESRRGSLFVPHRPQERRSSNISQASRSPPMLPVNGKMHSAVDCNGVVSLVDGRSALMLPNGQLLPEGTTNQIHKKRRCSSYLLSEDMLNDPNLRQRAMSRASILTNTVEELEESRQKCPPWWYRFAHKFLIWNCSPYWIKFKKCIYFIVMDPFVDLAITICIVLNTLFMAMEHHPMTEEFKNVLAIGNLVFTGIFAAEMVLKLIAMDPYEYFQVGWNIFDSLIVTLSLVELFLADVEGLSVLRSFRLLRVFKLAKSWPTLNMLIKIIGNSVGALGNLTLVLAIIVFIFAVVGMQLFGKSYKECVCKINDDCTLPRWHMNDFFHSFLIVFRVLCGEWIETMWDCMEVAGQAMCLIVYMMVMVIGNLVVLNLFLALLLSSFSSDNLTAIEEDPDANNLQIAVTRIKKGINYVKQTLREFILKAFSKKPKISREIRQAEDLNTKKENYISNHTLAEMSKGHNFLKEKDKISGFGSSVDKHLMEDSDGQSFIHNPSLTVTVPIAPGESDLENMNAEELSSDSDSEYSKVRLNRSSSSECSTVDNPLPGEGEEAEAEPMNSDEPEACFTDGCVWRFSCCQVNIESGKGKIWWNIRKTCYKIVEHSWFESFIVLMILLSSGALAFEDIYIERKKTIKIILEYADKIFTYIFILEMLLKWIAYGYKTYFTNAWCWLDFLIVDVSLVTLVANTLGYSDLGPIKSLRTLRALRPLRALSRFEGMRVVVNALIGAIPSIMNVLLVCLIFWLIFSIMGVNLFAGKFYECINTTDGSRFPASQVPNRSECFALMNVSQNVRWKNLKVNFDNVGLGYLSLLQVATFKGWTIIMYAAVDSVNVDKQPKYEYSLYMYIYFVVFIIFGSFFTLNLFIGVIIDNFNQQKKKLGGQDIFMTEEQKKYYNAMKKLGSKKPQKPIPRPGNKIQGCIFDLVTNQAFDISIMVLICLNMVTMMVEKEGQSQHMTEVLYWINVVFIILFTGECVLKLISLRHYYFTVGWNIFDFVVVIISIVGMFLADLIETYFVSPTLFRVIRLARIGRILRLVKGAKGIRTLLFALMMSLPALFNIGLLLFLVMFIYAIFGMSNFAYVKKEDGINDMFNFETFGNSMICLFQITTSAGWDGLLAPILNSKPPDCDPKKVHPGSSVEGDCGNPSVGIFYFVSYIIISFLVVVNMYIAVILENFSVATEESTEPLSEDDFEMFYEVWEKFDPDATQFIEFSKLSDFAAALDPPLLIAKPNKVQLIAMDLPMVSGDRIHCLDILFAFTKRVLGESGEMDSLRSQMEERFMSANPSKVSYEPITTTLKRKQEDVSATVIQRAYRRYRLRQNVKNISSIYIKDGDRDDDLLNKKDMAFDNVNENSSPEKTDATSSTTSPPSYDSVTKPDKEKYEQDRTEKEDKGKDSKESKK
Method: The obtained photoprobes were evaluated in a patch-clamp assay using CHO cells expressing Nav1.7 (Figure 1D).
For electrophysiological recordings, the human Nav1.7 (XM_011511618) expressing CHO stable cell line (Anaxon, Switzerland) was cultured in Ham’s F12 medium supplemented with 10% FBS, 2 mM L-Glutamine and required selection antibiotic in 5% CO2 at 37°C.
For all Nav channel recordings, the intracellular solution contained (in mM): 50 CsCl, 60 CsF, 10 NaCl, 20 EGTA and 10 HEPES (pH 7.2, osmolarity 285 mOsm), and extracellular solution contained (in mM): 80 NaCl, 60 NMDG, 4 KCl, 2 CaCl2, 1 MgCl2, 5 glucose and 10 HEPES (pH 7.4, osmolarity 300 mOsm). Automated patch clamp (APC) recordings were performed by using SyncroPatch 768PE (Nanion Technologies, Germany), with PatchController384 V1.5.2 and DataController384 V1.5.0 software for pulse generation and data collection. Currents were sampled at 10 kHz and filtered with Bessel filter. Series resistance was compensated 80% with leak subtraction. Seal resistance (Rseal) was calculated using built-in protocols, and high-quality recoding data was obtained by auto filtering 3 quality control criteria: cell catching (>10 MΩ), seal resistance (>500 MΩ) and baseline current amplitude (>500 pA), and follow with manual inspection. The voltage protocol for all toxin pharmacological tests was set with holding membrane potential (Vm) at -120 mV, eliciting a 10 ms pulse to -10 mV every 2 s, recording 5 min for baseline and followed with examining compound effect for 25 min. Nav channel inhibition was calculated as the percentage of peak current (I) decrease from before compound application (I_Baseline) to the end of 25 minutes compound application (I_End) and both being normalized to the end of experiment full block current (I_Fullblock) using this following equation: Block%=[1−(Iend−Ifullblock/Ibaseline−Ifullblock)]×100%
All Nav channel inhibitions were presented as mean ± standard error of the mean from at least three independent trials.

Molecule | IC50 [nM]
CC[C@H](C)[C@H](NC(=O)[C@H](CCC(N)=O)NC(=O)[C@H](Cc1ccc(O)cc1)NC(=O)[C@H](CCCCN)NC(=O)[C@@H]1CSSC[C@@H]2NC(=O)[C@H](CCC(N)=O)NC(=O)[C@H](CC(=O)O)NC(=O)[C@H](CC(N)=O)NC(=O)[C@H](CO)NC(=O)[C@@H]3CCCN3C(=O)[C@H](CC(N)=O)NC(=O)[C@@H]3CSSC[C@H](NC(=O)[C@H](C(C)C)NC(=O)[C@H](CC(C)C)NC(=O)[C@H](CCC4(C)N=N4)NC(=O)[C@H](CO)NC(=O)[C@H](CO)NC(=O)[C@H](CCCCN)NC(=O)[C@H](CSSC[C@H](NC(=O)[C@@H](N)CCC(=O)O)C(=O)N[C@@H](CC(C)C)C(=O)N[C@@H](CCC(=O)O)C(=O)N[C@@H]([C@@H](C)CC)C(=O)N[C@@H](Cc4ccccc4)C(=O)N[C@@H](CCCCN)C(=O)N[C@@H](C)C(=O)N3)NC2=O)C(=O)N[C@@H](CO)C(=O)N[C@@H](CCCNC(=N)N)C(=O)N[C@@H](CCCCN)C(=O)N[C@@H]([C@@H](C)O)C(=O)N[C@@H](CCCNC(=N)N)C(=O)N[C@@H](Cc2c[nH]c3ccccc23)C(=O)N1)C(N)=O [HTMp21] | 35
CC[C@H](C)[C@H](NC(=O)[C@H](CCC(N)=O)NC(=O)[C@H](Cc1ccc(O)cc1)NC(=O)[C@H](CCCCN)NC(=O)[C@@H]1CSSC[C@@H]2NC(=O)[C@H](CCC(N)=O)NC(=O)[C@H](CC(=O)O)NC(=O)[C@H](CC(N)=O)NC(=O)[C@H](CO)NC(=O)[C@@H]3CCCN3C(=O)[C@H](CC(N)=O)NC(=O)[C@@H]3CSSC[C@H](NC(=O)[C@H](C(C)C)NC(=O)[C@H](CC(C)C)NC(=O)[C@H](CCCCN)NC(=O)[C@H](CO)NC(=O)[C@H](CO)NC(=O)[C@H](CCCCN)NC(=O)[C@H](CSSC[C@H](NC(=O)[C@@H](N)CCC(=O)O)C(=O)N[C@@H](CC(C)C)C(=O)N[C@@H](CCC(=O)O)C(=O)N[C@@H](CCC4(C)N=N4)C(=O)N[C@@H](Cc4ccccc4)C(=O)N[C@@H](CCCCN)C(=O)N[C@@H](C)C(=O)N3)NC2=O)C(=O)N[C@@H](CO)C(=O)N[C@@H](CCCNC(=N)N)C(=O)N[C@@H](CCCCN)C(=O)N[C@@H]([C@@H](C)O)C(=O)N[C@@H](CCCNC(=N)N)C(=O)N[C@@H](Cc2c[nH]c3ccccc23)C(=O)N1)C(N)=O [HTMp5] | 41
CC[C@H](C)[C@@H]1NC(=O)[C@H](CCC(=O)O)NC(=O)[C@H](CC(C)C)NC(=O)[C@@H](NC(=O)[C@@H](N)CCC(=O)O)CSSC[C@@H]2NC(=O)[C@@H]3CSSC[C@@H](C(=O)N[C@@H](CCCCN)C(=O)N[C@@H](Cc4ccc(O)cc4)C(=O)N[C@@H](CCC(N)=O)C(=O)N[C@@H](CCC4(C)N=N4)C(N)=O)NC(=O)[C@H](Cc4c[nH]c5ccccc45)NC(=O)[C@H](CCCNC(=N)N)NC(=O)[C@H]([C@@H](C)O)NC(=O)[C@H](CCCCN)NC(=O)[C@H](CCCNC(=N)N)NC(=O)[C@H](CO)NC(=O)[C@H](CSSC[C@H](NC(=O)[C@H](C)NC(=O)[C@H](CCCCN)NC(=O)[C@H](Cc4ccccc4)NC1=O)C(=O)N[C@@H](CC(N)=O)C(=O)N1CCC[C@H]1C(=O)N[C@@H](CO)C(=O)N[C@@H](CC(N)=O)C(=O)N[C@@H](CC(=O)O)C(=O)N[C@@H](CCC(N)=O)C(=O)N3)NC(=O)[C@H](C(C)C)NC(=O)[C@H](CC(C)C)NC(=O)[C@H](CCCCN)NC(=O)[C@H](CO)NC(=O)[C@H](CO)NC(=O)[C@H](CCCCN)NC2=O [HTMp35] | 13
CC[C@H](C)[C@H](NC(=O)[C@H](CCC(N)=O)NC(=O)[C@H](Cc1ccc(O)cc1)NC(=O)[C@H](CCCCN)NC(=O)[C@@H]1CSSC[C@@H]2NC(=O)[C@H](CCC(N)=O)NC(=O)[C@H](CC(=O)O)NC(=O)[C@H](CC(N)=O)NC(=O)[C@H](CO)NC(=O)[C@@H]3CCCN3C(=O)[C@H](CC(N)=O)NC(=O)[C@@H]3CSSC[C@H](NC(=O)[C@H](C(C)C)NC(=O)[C@H](CC(C)C)NC(=O)[C@H](CCCCN)NC(=O)[C@H](CO)NC(=O)[C@H](CO)NC(=O)[C@H](CCCCN)NC(=O)[C@H](CSSC[C@H](NC(=O)[C@@H](N)CCC(=O)O)C(=O)N[C@@H](CC(C)C)C(=O)N[C@@H](CCC(=O)O)C(=O)N[C@@H]([C@@H](C)CC)C(=O)N[C@@H](Cc4ccccc4)C(=O)N[C@@H](CCCCN)C(=O)N[C@@H](C)C(=O)N3)NC2=O)C(=O)N[C@@H](CO)C(=O)N[C@@H](CCCNC(=N)N)C(=O)N[C@@H](CCCCN)C(=O)N[C@@H]([C@@H](C)O)C(=O)N[C@@H](CCC2(C)N=N2)C(=O)N[C@@H](Cc2c[nH]c3ccccc23)C(=O)N1)C(N)=O [HTMp29] | 68
CC[C@H](C)[C@H](NC(=O)[C@H](CCC(N)=O)NC(=O)[C@H](Cc1ccc(O)cc1)NC(=O)[C@H](CCCCN)NC(=O)[C@@H]1CSSC[C@@H]2NC(=O)[C@H](CCC(N)=O)NC(=O)[C@H](CC(=O)O)NC(=O)[C@H](CC(N)=O)NC(=O)[C@H](CO)NC(=O)[C@@H]3CCCN3C(=O)[C@H](CC(N)=O)NC(=O)[C@@H]3CSSC[C@H](NC(=O)[C@H](C(C)C)NC(=O)[C@H](CC(C)C)NC(=O)[C@H](CCCCN)NC(=O)[C@H](CO)NC(=O)[C@H](CO)NC(=O)[C@H](CCCCN)NC(=O)[C@H](CSSC[C@H](NC(=O)[C@@H](N)CCC(=O)O)C(=O)N[C@@H](CC(C)C)C(=O)N[C@@H](CCC(=O)O)C(=O)N[C@@H]([C@@H](C)CC)C(=O)N[C@@H](Cc4ccccc4)C(=O)N[C@@H](CCCCN)C(=O)N[C@@H](C)C(=O)N3)NC2=O)C(=O)N[C@@H](CO)C(=O)N[C@@H](CCCNC(=N)N)C(=O)N[C@@H](CCC2(C)N=N2)C(=O)N[C@@H]([C@@H](C)O)C(=O)N[C@@H](CCCNC(=N)N)C(=O)N[C@@H](Cc2c[nH]c3ccccc23)C(=O)N1)C(N)=O [HTMp27] | 80
CC[C@H](C)[C@H](NC(=O)[C@H](CCC(N)=O)NC(=O)[C@H](Cc1ccc(O)cc1)NC(=O)[C@H](CCCCN)NC(=O)[C@@H]1CSSC[C@@H]2NC(=O)[C@H](CCC(N)=O)NC(=O)[C@H](CC(=O)O)NC(=O)[C@H](CC(N)=O)NC(=O)[C@H](CO)NC(=O)[C@@H]3CCCN3C(=O)[C@H](CC(N)=O)NC(=O)[C@@H]3CSSC[C@H](NC(=O)[C@H](C(C)C)NC(=O)[C@H](CC(C)C)NC(=O)[C@H](CCCCN)NC(=O)[C@H](CO)NC(=O)[C@H](CO)NC(=O)[C@H](CCCCN)NC(=O)[C@H](CSSC[C@H](NC(=O)[C@@H](N)CCC(=O)O)C(=O)N[C@@H](CC(C)C)C(=O)N[C@@H](CCC(=O)O)C(=O)N[C@@H]([C@@H](C)CC)C(=O)N[C@@H](Cc4ccccc4)C(=O)N[C@@H](CCC4(C)N=N4)C(=O)N[C@@H](C)C(=O)N3)NC2=O)C(=O)N[C@@H](CO)C(=O)N[C@@H](CCCNC(=N)N)C(=O)N[C@@H](CCCCN)C(=O)N[C@@H]([C@@H](C)O)C(=O)N[C@@H](CCCNC(=N)N)C(=O)N[C@@H](Cc2c[nH]c3ccccc23)C(=O)N1)C(N)=O [HTMp7] | 40

Target: the molecule itself
Experiment: SEC; size-exclusion chromatography after anti-FLAG affinity purification, in GDN detergent
Details: not given

Molecule | binding result
B1 | binds
